Experimental findings from ChEMBL document CHEMBL5137095, “N-Benzyl Benzamide Derivatives as Selective Sub-Nanomolar Butyrylcholinesterase Inhibitors for Possible Treatment in Advanced Alzheimer's Disease” (J Med Chem, 2022) are described below.

Where only a bound is given, the exact number is not on record here.

Series [1] addresses Cholinesterase (Homo sapiens, UniProt P06276). Put plainly: Inhibition of human BChE using acetylthiocholine iodide or butyrylthiocholine iodide as substrate preincubated for 5 mins followed by substrate addition by Ellman's method.
In series [2] the target is Cholinesterase (Equus caballus, UniProt P81908). The series can be described thus: Inhibition of horse serum BChE using acetylthiocholine iodide or butyrylthiocholine iodide as substrate preincubated for 5 mins followed by substrate addition by Ellman's method. (In Ellman's method for cholinesterases, released thiocholine reacts with DTNB.)
Cholinesterase (Equus caballus, UniProt P81908), sequence (P81908 whole entry): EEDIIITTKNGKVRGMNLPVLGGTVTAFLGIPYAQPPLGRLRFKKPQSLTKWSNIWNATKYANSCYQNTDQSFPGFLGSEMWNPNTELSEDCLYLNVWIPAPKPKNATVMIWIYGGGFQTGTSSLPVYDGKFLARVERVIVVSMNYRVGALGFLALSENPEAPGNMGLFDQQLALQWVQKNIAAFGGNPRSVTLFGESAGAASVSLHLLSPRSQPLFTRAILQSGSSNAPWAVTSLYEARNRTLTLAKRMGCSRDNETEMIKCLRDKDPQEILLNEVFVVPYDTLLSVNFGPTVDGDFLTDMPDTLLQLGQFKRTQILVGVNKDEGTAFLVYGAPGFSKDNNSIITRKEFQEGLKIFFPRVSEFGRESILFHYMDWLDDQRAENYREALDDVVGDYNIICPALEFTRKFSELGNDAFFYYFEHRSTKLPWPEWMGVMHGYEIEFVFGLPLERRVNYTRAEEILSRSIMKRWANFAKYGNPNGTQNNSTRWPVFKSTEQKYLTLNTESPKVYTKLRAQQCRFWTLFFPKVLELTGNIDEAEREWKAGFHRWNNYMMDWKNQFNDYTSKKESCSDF
Another series has as its system BV-2. Put plainly: Cytotoxicity against mouse BV-2 cells assessed as reduction in cell viability at 10 uM by MTT assay. The note with it: bv-2, 10 µM. Type of series: toxicity, cell-based. On the technique in general: Tetrazolium dyes change colour on reduction, which living cells bring about.
Another series has as its system HT-22. The series can be described thus: Cytotoxicity against mouse HT-22 cells assessed as reduction in cell viability at 10 uM by MTT assay. Type of series: toxicity, cell-based. The note with it: ht-22, 10 µM.
The test system of a further series is PC-12. The series can be described thus: Cytotoxicity against rat PC-12 cells assessed as reduction in cell viability at 10 uM by MTT assay. Type of series: toxicity, cell-based. The note with it: pc-12, 10 µM.
The next series concerns SH-SY5Y. The series can be described thus: Cytotoxicity against human SH-SY5Y cells assessed as reduction in cell viability at 10 uM by MTT assay. In kind it is toxicity, cell-based.
A short description of series [3]: Cytotoxicity against rat PC-12 cells assessed as cell survival rate at 10 uM by MTT assay. The note with it: read-out: Activity. Type of series: toxicity, cell-based.
Series [4] can be described thus: Cytotoxicity against mouse BV-2 cells assessed as cell survival rate at 10 uM by MTT assay. In kind it is toxicity, cell-based. The note with it: read-out: Activity.
Series [5] can be described thus: Cytotoxicity against mouse HT-22 cells assessed as cell survival rate at 10 uM by MTT assay. Type of series: toxicity, cell-based. The note with it: read-out: Activity.
The nature of series [6]: Cytotoxicity against human SH-SY5Y cells assessed as cell survival rate at 10 uM by MTT assay. The note with it: read-out: Activity. In kind it is toxicity, cell-based.
A short description of series [7]: Permeability of compound incubated for 18 hrs by PAMPA-BBB assay. The note with it: read-out: permeability. In kind it is ADME. (In general: PAMPA measures passive passage across an artificial lipid membrane.)
Series [8] is described as follows: n-octanol-water partition coefficient, log P of the compound by HPLC analysis. Type of series: physicochemical.

Cholinesterase (Homo sapiens, UniProt P06276), sequence (P06276 whole entry): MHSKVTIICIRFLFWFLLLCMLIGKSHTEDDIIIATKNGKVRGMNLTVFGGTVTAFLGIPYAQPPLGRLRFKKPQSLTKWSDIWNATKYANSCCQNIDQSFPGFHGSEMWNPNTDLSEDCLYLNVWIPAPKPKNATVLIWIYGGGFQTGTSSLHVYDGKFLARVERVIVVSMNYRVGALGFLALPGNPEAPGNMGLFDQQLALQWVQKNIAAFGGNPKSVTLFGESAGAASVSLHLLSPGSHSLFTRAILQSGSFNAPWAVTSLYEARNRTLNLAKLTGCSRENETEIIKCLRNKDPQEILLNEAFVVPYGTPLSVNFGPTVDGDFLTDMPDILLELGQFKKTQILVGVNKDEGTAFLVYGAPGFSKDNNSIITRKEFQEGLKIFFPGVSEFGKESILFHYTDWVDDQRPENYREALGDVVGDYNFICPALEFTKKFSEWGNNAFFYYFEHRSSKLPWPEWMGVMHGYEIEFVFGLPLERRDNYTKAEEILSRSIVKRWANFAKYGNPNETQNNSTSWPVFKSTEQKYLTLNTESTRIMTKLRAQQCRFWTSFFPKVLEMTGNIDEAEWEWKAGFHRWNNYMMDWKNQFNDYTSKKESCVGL

As a reminder, the IC50 is the midpoint of a concentration-inhibition curve. In the case of `CCN(CC)Cc1ccccc1CNC(=O)c1cccc(NC(=O)c2ccccc2F)c1`, the IC50 was found to be 5.04 nM on Cholinesterase [1] and 6.54 nM against Cholinesterase [2].

With `CCN(CC)Cc1ccccc1CNC(=O)c1cc(NC(=O)c2ccc(F)cc2)cc([N+](=O)[O-])c1`, the Activity result in the series with BV-2, with HT-22, in the series with PC-12 and with SH-SY5Y was “Non-Toxic” throughout. Moreover, the values for the IC50 against Cholinesterase [1] and at Cholinesterase [2] were 1.04 nM and 1.27 nM, respectively. The viability at 10 µM in series [3], in [4], in [5] and in [6] was greater than 70% throughout.

For the molecule `CCN(CC)Cc1ccccc1CNC(=O)c1cc(NC(=O)c2ccc(F)cc2)cc(C(F)(F)F)c1`, the IC50 on Cholinesterase [1] worked out at 8.67 nM; at Cholinesterase [2], 1.35 nM.

Consider `CCN(CC)Cc1ccccc1CNC(=O)c1cc(NC(=O)c2ccc(F)cc2)cc(OC)c1`, for which the IC50 at Cholinesterase [1] was 136 nM; on Cholinesterase [2], 0.82 nM.

As usually defined, the logP is a log measure of how a compound divides between an organic and an aqueous phase. Low readings indicate a more hydrophilic compound, high ones a more lipophilic compound. In the case of `CCN(CC)Cc1ccccc1CNC(=O)c1cccc(NC(=O)c2ccc(Cl)cc2)c1`, the Papp at 18 h in series [7] worked out at 6.02 ×10⁻⁶ cm/s. Moreover, the IC50 against Cholinesterase [1] came out at 0.76 nM; against Cholinesterase [2], 1.02 nM. This molecule returned a logP in series [8] of 2.67.

Take `CCN(CC)Cc1ccccc1CNC(=O)c1ccccc1NC(=O)c1ccc(F)cc1`: the IC50 at Cholinesterase [1] amounted to 115 nM; on Cholinesterase [2] it was 187 nM.

As to `O=C(NCc1ccccc1)c1cccc(NC(=O)c2cccs2)c1`, the IC50 on Cholinesterase [1] worked out at 31300 nM; against Cholinesterase [2], 97300 nM.

As to `CCN(CC)Cc1ccccc1CNC(=O)c1cccc(NC(=O)c2ccc(OC)cc2)c1`, the Activity entry with BV-2, in the series with HT-22, in the series with PC-12 and in the series on SH-SY5Y was “Non-Toxic” each time. Besides, the viability at 10 µM in series [3], in [4], in [5] and in series [6] was greater than 70% in each case.

`CCN(CC)Cc1ccccc1CNC(=O)c1cccc(C(=O)Nc2cccs2)c1`: the figures for the half-maximal inhibitory concentration (IC50) against Cholinesterase [1] and at Cholinesterase [2] were 12.9 nM and 1.19 nM, respectively.

Consider `CCN(CC)Cc1cccc(CNC(=O)c2cccc(NC(=O)c3cccs3)c2)c1`, for which the IC50 on Cholinesterase [1] was 48900 nM; at Cholinesterase [2] it was 55000 nM.

As to `CCN(CC)Cc1ccc(CNC(=O)c2cccc(NC(=O)c3cccs3)c2)cc1`, the IC50 at Cholinesterase [1] turned out to be 3440 nM; on Cholinesterase [2], 5950 nM.

As to `CCN(CC)Cc1ccccc1CNC(=O)c1cccc(NC(=O)c2ccc(F)cc2)c1Br`, the IC50 came out at 1840 nM against Cholinesterase [1] and 14.4 nM at Cholinesterase [2].

In the case of `CN(C)Cc1ccccc1NC(=O)c1cccc(NC(=O)c2cccs2)c1`, the IC50 on Cholinesterase [1] stood at 1240 nM.

Take `CCN(CC)Cc1ccccc1CNC(=O)c1cccc(NC(=O)C2CCCCC2)c1`: the IC50 against Cholinesterase [1] came out at 3.71 nM; against Cholinesterase [2] it was 7.9 nM.

As for `CCN(CC)Cc1ccccc1CNC(=O)c1cccc(OC(=O)c2cccs2)c1`, the IC50 on Cholinesterase [1] was found to be 132 nM; at Cholinesterase [2], 158 nM.

Take `CCN(CC)Cc1ccccc1CNC(=O)c1cccc(NC(=O)c2ccc(F)cc2)c1C`: the Papp at 18 h in series [7] was 11.4 ×10⁻⁶ cm/s. Also, the half-inhibitory concentration (IC50) came out at 0.26 nM at Cholinesterase [1] and 0.14 nM on Cholinesterase [2]. In addition, in series [8], the logP was found to be 1.02.

For `CCN(CC)Cc1ccccc1CNC(=O)c1cc(NC(=O)c2ccc(F)cc2)ccc1C`, the Activity entry in the series on BV-2, with HT-22, in the series with PC-12 and in the series with SH-SY5Y was “Non-Toxic” each time. In addition, the IC50 against Cholinesterase [1] came out at 2.71 nM; at Cholinesterase [2], 1.35 nM. Further, the viability at 10 µM in [3], in series [4], in [5] and in series [6] was greater than 70% in each case.

`CCN(CC)Cc1ccccc1CNC(=O)c1cccc(NC(=O)c2ccc(I)cc2)c1`: the Papp at 18 h in series [7] was 10.1 ×10⁻⁶ cm/s. Also, the IC50 came out at 0.11 nM at Cholinesterase [1] and 0.34 nM against Cholinesterase [2].

With `CCN(CC)Cc1ccccc1CNC(=O)c1cc(C#N)cc(NC(=O)c2ccc(F)cc2)c1`, the IC50 against Cholinesterase [1] stood at 3.16 nM; against Cholinesterase [2], 1.51 nM.

In the case of `CCN(CC)Cc1ccccc1CNC(=O)c1cccc(NC(=O)c2ccccc2)c1`, it took 0.96 nM to reach half-maximal inhibition on Cholinesterase [2] (IC50).

On to `CCN(CC)Cc1ccccc1CNC(=O)c1ccc(Br)c(NC(=O)c2ccc(F)cc2)c1`, for which the results for the IC50 against Cholinesterase [1] and at Cholinesterase [2] were 2.58 nM and 2.42 nM, respectively.

On to `CCN(CC)Cc1ccccc1CNC(=O)c1cccc(NS(=O)(=O)c2cccs2)c1`, for which the figures for the IC50 against Cholinesterase [1] and at Cholinesterase [2] were 2610 nM and 350 nM, respectively.

Regarding `CCN(CC)Cc1ccccc1CNC(=O)c1ccc(NC(=O)c2ccc(F)cc2)cc1`, the IC50 worked out at 5.29 nM against Cholinesterase [1] and 4.99 nM at Cholinesterase [2].

For the molecule `CCN(CC)Cc1ccccc1CNC(=O)c1cc(NC(=O)c2ccc(F)cc2)ccc1Br`, the IC50 against Cholinesterase [1] came to 16.1 nM; against Cholinesterase [2] it was 3.53 nM.

For the molecule `CCN(CC)Cc1ccccc1CNC(=O)c1cccc(NC(=O)c2ccc(Br)cc2)c1`, the IC50 is 0.13 nM at Cholinesterase [1] and 0.087 nM at Cholinesterase [2]. For the same molecule, the logP in series [8] turned out to be 2.73.

As to `CCCN(CCC)Cc1ccccc1NC(=O)c1cccc(NC(=O)c2cccs2)c1`, the IC50 against Cholinesterase [1] amounted to 870 nM; against Cholinesterase [2], 120 nM.

With `CCN(CC)Cc1ccccc1CNC(=O)c1cccc(NC(=O)c2ccc(C)cc2)c1`, the Activity entry in the series with BV-2, with HT-22, in the series with PC-12 and in the series with SH-SY5Y was “Non-Toxic” throughout. In addition, the values for the IC50 at Cholinesterase [1] and against Cholinesterase [2] were 45 nM and 77.3 nM, respectively. The viability at 10 µM in series [3], in series [4], in series [5] and in [6] was greater than 70% throughout.

As to `CCN(CC)Cc1ccccc1CNC(=O)c1cccc(NC(=O)c2ccco2)c1`, the Activity entry in the series with BV-2, with HT-22, with PC-12 and in the series on SH-SY5Y was “Non-Toxic” throughout. In addition, the Papp at 18 h in [7] was 6.89 ×10⁻⁶ cm/s. On Cholinesterase [1], the midpoint of inhibition, the IC50, lay at 0.26 nM. The viability at 10 µM in [3], in [4], in series [5] and in series [6] was greater than 70% each time.

Consider `CCN(CC)Cc1ccccc1CNC(=O)c1cc(F)cc(NC(=O)c2ccc(F)cc2)c1`, for which the IC50 was determined as 0.61 nM against Cholinesterase [1] and 0.55 nM against Cholinesterase [2]. Further, in [8], the logP is 1.36.

`CCN(CC)Cc1ccccc1CNC(=O)c1cccc(NC(=O)c2c(F)c(F)c(F)c(F)c2F)c1`: the IC50 is 1.28 nM against Cholinesterase [1] and 0.48 nM on Cholinesterase [2].

As to `Cc1ccccc1NC(=O)c1cccc(NC(=O)c2cccs2)c1`, the IC50 against Cholinesterase [1] was 11100 nM; on Cholinesterase [2], 12900 nM.

Take `CCN(CC)Cc1ccccc1CNC(=O)c1ccc(C)c(NC(=O)c2ccc(F)cc2)c1`: the results for the IC50 against Cholinesterase [1] and against Cholinesterase [2] were 135 nM and 0.38 nM, respectively.

In the case of `CCN(CC)Cc1ccccc1NC(=O)c1cccc(NC(=O)c2cccs2)c1`, the IC50 on Cholinesterase [1] came to 540 nM.

On Cholinesterase [1], `CCN(CC)Cc1ccccc1CNC(=O)c1cccc(NC(=O)c2cccc(F)c2)c1` gave an IC50 of 3.11 nM.
